Source: US20250347680A1, “METHODS OF OPTIMIZING KINASE INHIBITORS” (Brandeis University, priority 2024, published 2025)

What was measured:
[1] = system: p38α phosphorylation in HL60 cells; assay: Western blot of p38α phosphorylation in HL60 cells after TNFα or LPS stimulation; type: cell-based, human; conditions: for level of dual-phosphorylated p38α in HL60 cells: 10 μM inhibitor 30 minutes after stimulation with TNFα (40 ng/mL) or LPS; for level of dual-phosphorylated p38α in HL60 cells / single-tyrosine phosphorylated p38α / phospho-tyrosine in HL60 cells (phospho-site specific antibody) / threonine phosphorylation of p38α in HL60 cells (phospho-site specific antibody): western blot; for single-tyrosine phosphorylated p38α / phospho-tyrosine in HL60 cells (phospho-site specific antibody) / threonine phosphorylation of p38α in HL60 cells (phospho-site specific antibody): 10 μM inhibitor after TNFα stimulation; for p38α threonine phosphorylation in cells harvested immediately after addition of inhibitor: cells pretreated with TNFα
Procedure: Cell culture, reagents and antibodies: HL60 cells were maintained in RPM I media supplemented with 2 mM L-glutamine and 10% fetal bovine serum (FBS) at 37° C. in a humidified atmosphere of 5% CO2. HL60-APPM1A were generated. The following antibodies were obtained from Cell Signaling Technologies (Danvers, MA); PPM1A (cat. #3549), p38 (cat. #9212) and 2p-p38 (cat. #4511). The following antibodies were obtained from A B Clonal (Woburn, MA); p38-phospho-Y182 (cat. #AP0057) and p38-phospho-T180 (cat. #AP0056). B-actin antibody (cat. #sc-47778) was obtained from Santa Cruz Biotechnology (Santa Cruz, CA). Recombinant human TNFα (cat. #300-01A) was obtained from Peprotech (Cranbury, NJ). Lipopolysaccharide (LPS) 500× solution (cat. #50-112-9325) was obtained from Invitrogen (Waltham, MA).
Cellular assays: HL60 cells were cultured in 6 well plates and grown until a density of 2 million cells/mL. […] Cells were spun down at 500 xg for 5 minutes, carefully washed with PBS once, and lysed with 50 μL RIPA buffer supplemented with 1:1000 phosphatase inhibitor and 1:500 benzonase. Lysates were centrifuged at 10,000 rpm for 15 minutes. Supernatant was harvested and lysate was either analyzed immediately or flash-frozen and stored at −80° C.
Western blot: Protein concentration of the lysate was determined using Bradford reagent normalized to a standard curve. 40-50 μg total protein per sample was separated on a 10% Tris-tricine polyacrylamide gel and then transferred to a polyvinylidene (PV DF) membrane using the Bio-Rad transfer system. Standard blotting protocol was followed. Primary antibodies (see antibody section) were incubated overnight at 4° C. followed by near-infrared (NIR) labeled secondary antibodies Goat anti-Rabbit IgG (H+L) Cross-Adsorbed Secondary Antibody, DyLight™ 800 (cat #. SA5-10036) or IgG (H+L) Cross-Adsorbed Goat anti-mouse, DyLight™ 680, Invitrogen™ (cat #. 35519) obtained from Invitrogen (Waltham, MA) for 1 hour at room temperature in 2.5% milk in TBST. Blots were washed and imaged on a LI-COR imaging instrument.

p38α = target: T1, p38α (Homo sapiens, UniProt Q16539); assay: WIP1 phosphatase assay: dephosphorylation of 32P-labelled dual-phosphorylated p38α bound to inhibitor; type: biochemical; conditions: p38α 0.25 μM, WIP1 2.5 μM, inhibitor 1.25 μM
T1 construct: 6-His (cleaved yes); made in house; host or cells: E. coli BL21 (DE3)
T1 sequence (Q16539 whole entry): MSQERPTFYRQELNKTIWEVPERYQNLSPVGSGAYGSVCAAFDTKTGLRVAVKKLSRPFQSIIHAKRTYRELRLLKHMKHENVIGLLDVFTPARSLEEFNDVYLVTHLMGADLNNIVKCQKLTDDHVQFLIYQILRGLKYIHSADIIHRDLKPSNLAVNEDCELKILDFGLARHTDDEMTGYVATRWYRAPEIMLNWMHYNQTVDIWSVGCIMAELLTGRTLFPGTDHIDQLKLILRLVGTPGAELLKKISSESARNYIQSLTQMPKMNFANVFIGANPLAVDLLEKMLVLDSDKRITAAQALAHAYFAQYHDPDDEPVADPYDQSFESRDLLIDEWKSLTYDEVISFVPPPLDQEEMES
Procedure: (§1) Following initial incubation, excess cold ATP was added for a final concentration of 12 mM and was incubated overnight. Unincorporated nucleotide was removed by buffer exchange using a Zeba™ spin column equilibrated in 50 mM K·HEPES pH7.5, 100 mM NaCl. 6His-MKK6^EE was then removed by Ni-NTA resin equilibrated in 50 mM K·HEPES pH7.5, 100 mM NaCl, 20 mM imidazole. The flow-through fraction from the Ni-NTA resin containing p38-^32P was then exchanged into 50 mM K·HEPES pH7.5, 100 mM NaCl buffer using 3 subsequent Zeba spin columns to remove all unincorporated nucleotide and free phosphate. Labeled p38-^32P was aliquoted and frozen at −80° C. for future use.
WIP1 and PPM1A: All WIP1 phosphatase assays were performed at room temperature in 50 mM K HEPES pH7.5, 0.8 mM CHAPS, 0.05 mg/mL BSA, and 15 mM MnCl2. WIP1 concentration was 2.5 μM, PPM1A concentration was 0.5 μM and p38-^32P was 0.25 μM unless otherwise stated. […] Reactions were stopped with 0.5 MEDTA, pH8.0 and run on PEI-Cellulose TLC plates developed in 1 M LiCl2 and 0.8 M acetic acid and imaged on a Typhoon™ scanner. Phosphatase assays were performed more than three independent times as separate experiments. Data shown in figures is from a single representative experiment, and reported errors are the error from the fit unless indicated otherwise.

MKK6 = conditions: previous reports; cited from earlier work
p38 = p38 (Homo sapiens, UniProt Q16539); conditions: initial biochemical kinase screening; cited from earlier work
Sequence of p38 (Q16539 whole entry): as above

MKK6 (Homo sapiens) = system: T2, MKK6 (Homo sapiens); assay: Kinase assay: phosphorylation of p38α by MKK6; conditions: biochemical assay; 50 μM inhibitor, 25 μM p38
T2 construct: made in house; host or cells: E. coli BL21 (DE3)
T2 sequence (Q16539 whole entry): as above
Procedure: Kinase assay: All kinase assays were performed at room temperature in 20 mM K HEPES PH7.5, 0.5 mMEDTA, 20 mM MgCl2 and 2 mM DTT. […] MKK6^EE was added to 25 μM p38, 25 μM cold ATP and 1 μCi of γ-^32P ATP. 50 μM p38 inhibitors were added to a final DMSO concentration of 5%. Reactions were stopped with SDS and run on PEI-Cellulose TLC plates run through water then developed in 1 M LiCl2 and 0.8 M acetic acid and imaged on a Typhoon™ scanner.

p38α (T180A) = target: T3, p38α (T180A) (Homo sapiens, UniProt Q16539, T180A); assay: DUSP3 dephosphorylation of single tyrosine phosphorylated p38α (T180A); type: biochemical; conditions: DUSP3 15 μM, p38α T180A 0.25 μM, 5-fold excess inhibitor
T3 construct: 6-His (cleaved yes); made in house; host or cells: E. coli BL21 (DE3)
T3 sequence (Q16539 whole entry T180A): as the sequence (Q16539 whole entry) above, with T180A counted along it
Procedure: as §1
DUSP3: All DUSP3 phosphatase assays were performed in 50 mM K HEPES pH7.5 and 100 mM NaCl. Reactions were stopped with SDS and run on PEI-Cellulose TLC plates run through water then developed in 1 M LiCl2 and 0.8 M acetic acid and imaged on a Typhoon scanner. Phosphatase assays were performed more than three independent times as separate experiments. Data shown in figures is from a single representative experiment, and reported errors are the error from the fit unless indicated otherwise.
+p38^T180A_32P: Reactions were run at room temperature with 15 μM DUSP3 and 0.25 μM p38^T180A_32.

[2] = single turnover, relative to DMSO control

SMILES	level of dual-phosphorylated p38α in HL60 cells [1]	single-tyrosine phosphorylated p38α / phospho-tyrosine in HL60 cells (phospho-site specific antibody) [1]	threonine phosphorylation of p38α in HL60 cells (phospho-site specific antibody) [1]	p38α threonine phosphorylation in cells harvested immediately after addition of inhibitor [1]	also measured
O=c1ncn2nc(Sc3ccc(F)cc3F)ccc2c1-c1c(Cl)cccc1Cl [VX-745]	caused disappearance	did not accumulate			effect on WIP1 threonine dephosphorylation of p38α (in words) (p38α): did not affect
CC(C)(C)Cn1c(N)nc2ccc(-c3[nH]c(C(C)(C)C)nc3-c3ccc(F)cc3)nc21 [LY2228820]	increased				decrease of the rate of threonine dephosphorylation of p38α by WIP1 (p38α; [2]): 5 fold
Cc1ccc(-n2nc(C(C)(C)C)cc2NC(=O)NCc2cc(F)ccc2Oc2ccc3c(cnn3CCO)c2)cc1 [pexmetinib]	disappeared	increase	disappearance	completely disappeared	
Cc1ccc(-n2nc(C(C)(C)C)cc2NC(=O)Nc2ccc(OCCN3CCOCC3)c3ccccc23)cc1 [BIRB 796]	disappeared	increase	disappearance	completely disappeared	MKK6 dual phosphorylation measured by ELISA (MKK6): block
CCc1nc(-c2cccc(C)c2)c(-c2ccnc(NC(=O)c3ccccc3)c2)s1 [TAK-715]	caused disappearance	did not accumulate			
Cc1c(F)cc(C(=O)NC2CC2)cc1-c1ccc(C(=O)NCC(C)(C)C)cn1 [losmapimod]	caused disappearance	did not accumulate			
Cc1cn(-c2cc(NC(=O)c3ccc(C)c(Nc4nccc(-c5cccnc5)n4)c3)cc(C(F)(F)F)c2)cn1 [nilotinib]	disappeared	increase	disappearance	completely disappeared	binding of p38 compared to primary target ABL (p38): weak off-target binder; threonine phosphorylation of p38α by MKK6 (MKK6 (Homo sapiens)): did not impact; increase of the rate of threonine dephosphorylation of p38α by WIP1 (p38α; [2]): four-fold; effect on rate of DUSP3 dephosphorylation of Y182 of p38α (T180A) (p38α (T180A)): no effect
Oc1ccc(-c2nc(-c3ccncc3)c(-c3ccc(F)cc3)[nH]2)cc1 [SB202190]	increased		increased		decrease of the rate of threonine dephosphorylation of p38α by WIP1 (p38α; [2]): 5 fold; effect on rate of DUSP3 dephosphorylation of Y182 of p38α (T180A) (p38α (T180A)): no effect
NC(=O)c1ccc2[nH]ccc2c1 [SD-169]					effect on WIP1 threonine dephosphorylation of p38α (in words) (p38α): no change on phosphatase activity
